Marks after values point to notes of the source that are not given here.
How the values were obtained:
Format in all cases: in vivo, BALB/cAnNRj mice
Serum parameter analysis = assay: Serum parameter analysis
Blood parameter analysis = assay: Blood parameter analysis
active caspase-3 = assay: Indirect immunohistochemistry of active caspase-3 in organ cryosections
[1] = busulfan 18.8 mg/kg i.p., d3, mean, n = 6
[2] = busulfan 18.8 mg/kg i.p., d5, mean, n = 10
[3] = busulfan 18.8 mg/kg i.p., d5, mean, n = 11
[4] = busulfan 18.8 mg/kg i.p. day 0, 2, 4, day 5, n = 5, mean ± SD
[5] = cisplatin 20 mg/kg BW i.p. once, d1, mean, n = 3
[6] = cisplatin 20 mg/kg BW i.p. once, d2, mean, n = 8
[7] = cisplatin 20 mg/kg BW i.p. once, d2, mean, n = 9
[8] = cisplatin 20 mg/kg BW i.p. once, d3, mean, n = 4
[9] = cisplatin 20 mg/kg BW i.p. once, d2, mean, n = 12
[10] = cisplatin 20 mg/kg BW i.p. once, d3, mean, n = 5
[11] = cisplatin 20 mg/kg BW i.p. once, day 3, n = 3, mean ± SD
[12] = doxorubicin 4 mg/kg BW i.p., d8, mean, n = 3
[13] = doxorubicin 4 mg/kg BW i.p., d15, mean, n = 4
[14] = doxorubicin 4 mg/kg BW i.p. day 0, 7, 14, day 15, n = 3, mean ± SD
[15] = doxorubicin 4 mg/kg BW i.p. day 0, 7, 14, day 15, n = 4, mean ± SD

CS(=O)(=O)OCCCCOS(C)(=O)=O [Busulfan]
ALT (Serum parameter analysis; [1]): 55.33 U/L | AST (Serum parameter analysis; [1]): 82.5 U/L | CK (Serum parameter analysis; [1]): 141.5 U/L | Creatinine (Serum parameter analysis; [1]): 11.17 µmol/L | Urea (Serum parameter analysis; [1]): 7.81 mmol/L | ALT (Serum parameter analysis; [2]): 87.1 U/L | AST (Serum parameter analysis; [2]): 84.4 U/L | CK (Serum parameter analysis; [2]): 160.2 U/L | Creatinine (Serum parameter analysis; [2]): 12.6 µmol/L | Urea (Serum parameter analysis; [2]): 7.19 mmol/L | HCT (Blood parameter analysis; [1]): 42.0% | HGB (Blood parameter analysis; [1]): 15.2 g/dL | PLT (Blood parameter analysis; [1]): 849.3 10^3/µl | RBC (Blood parameter analysis; [1]): 9.79 10^6/µl | WBC (Blood parameter analysis; [1]): 4730 µL⁻¹ | HCT (Blood parameter analysis; [3]): 35.2% | HGB (Blood parameter analysis; [3]): 13.3 g/dL | PLT (Blood parameter analysis; [3]): 1.175e+06 µL⁻¹ | RBC (Blood parameter analysis; [3]): 8.32 10^6/µl | WBC (Blood parameter analysis; [3]): 4940 µL⁻¹ | caspase-3 activation, liver (active caspase-3; [4]): 3.0 ± 0.1 % area | caspase-3 activation, lungs (active caspase-3; [4]): 0.4 ± 0.1 % area

N.N.[Cl][Pt][Cl] [Cisplatin]
ALT (Serum parameter analysis; [5]): 58 U/L | AST (Serum parameter analysis; [5]): 122 U/L | CK (Serum parameter analysis; [5]): 180.7 U/L | Creatinine (Serum parameter analysis; [5]): 16.67 µmol/L | Urea (Serum parameter analysis; [5]): 6.32 mmol/L | ALT (Serum parameter analysis; [6]): 88.88 U/L | AST (Serum parameter analysis; [6]): 200* U/L | CK (Serum parameter analysis; [7]): 372.6 U/L | Creatinine (Serum parameter analysis; [7]): 27.67** µmol/L | Urea (Serum parameter analysis; [7]): 15.09* mmol/L | ALT (Serum parameter analysis; [8]): 63.5 U/L | AST (Serum parameter analysis; [8]): 183.8 U/L | CK (Serum parameter analysis; [8]): 586.3* U/L | Creatinine (Serum parameter analysis; [8]): 22.25 µmol/L | Urea (Serum parameter analysis; [8]): 11.08 mmol/L | HCT (Blood parameter analysis; [5]): 43.5** % | HGB (Blood parameter analysis; [5]): 15.9* g/dL | PLT (Blood parameter analysis; [5]): 797 10^3/µl | RBC (Blood parameter analysis; [5]): 10.23 10^6/µl | WBC (Blood parameter analysis; [5]): 5.63 10^3/µl | HCT (Blood parameter analysis; [9]): 40.5% | HGB (Blood parameter analysis; [9]): 15.08 g/dL | RBC (Blood parameter analysis; [9]): 9.45 10^6/µl | WBC (Blood parameter analysis; [9]): 4.85** 10^3/µl | HCT (Blood parameter analysis; [10]): 41.6% | HGB (Blood parameter analysis; [10]): 15.38 g/dL | PLT (Blood parameter analysis; [10]): 1147** 10^3/µl | RBC (Blood parameter analysis; [10]): 9.81e+06 µL⁻¹ | WBC (Blood parameter analysis; [10]): 3.68** 10^3/µl | caspase-3 activation, kidneys (active caspase-3; cisplatin 20 mg/kg BW i.p. once, day 2, n = 3, mean ± SD): 1.0 ± 0.1 % area | caspase-3 activation, liver (active caspase-3; [11]): 4.3 ± 0.7 % area | caspase-3 activation, lungs (active caspase-3; [11]): 0.5 ± 0.1 % area | caspase-3 activation, spleen (active caspase-3; cisplatin 20 mg/kg BW i.p. once, day 3, n = 4, mean ± SD): 10.5 ± 4.8 % area

COc1cccc2c1C(=O)c1c(O)c3c(c(O)c1C2=O)C[C@@](O)(C(=O)CO)C[C@@H]3O[C@H]1C[C@H](N)[C@H](O)[C@H](C)O1 [Doxorubicin]
ALT (Serum parameter analysis; [12]): 90.33** U/L | AST (Serum parameter analysis; [12]): 94.67 U/L | CK (Serum parameter analysis; [12]): 109.7 U/L | Creatinine (Serum parameter analysis; [12]): 15.33* µmol/L | Urea (Serum parameter analysis; [12]): 7.73 mmol/L | ALT (Serum parameter analysis; [13]): 52.25 U/L | AST (Serum parameter analysis; [13]): 96.5 U/L | CK (Serum parameter analysis; [13]): 195.3* U/L | Creatinine (Serum parameter analysis; [13]): 16.25** µmol/L | Urea (Serum parameter analysis; [13]): 7 mmol/L | HCT (Blood parameter analysis; [12]): 41.2% | PLT (Blood parameter analysis; [12]): 1011 10^3/µl | RBC (Blood parameter analysis; [12]): 9.62 10^6/µl | WBC (Blood parameter analysis; [12]): 9.2 10^3/µl | HCT (Blood parameter analysis; [13]): 34.1*** % | PLT (Blood parameter analysis; [13]): 1.106e+06 µL⁻¹ | RBC (Blood parameter analysis; [13]): 7.98*** 10^6/µl | WBC (Blood parameter analysis; [13]): 6.5 10^3/µl | caspase-3 activation, liver (active caspase-3; [14]): 3.5 ± 1.5 % area | caspase-3 activation, lungs (active caspase-3; [14]): 0.7 ± 0.1 % area | caspase-3 activation, heart (active caspase-3; [15]): 2.2 ± 0.7 % area | caspase-3 activation, kidneys (active caspase-3; [15]): 1.1 ± 0.3 % area | caspase-3 activation, lungs (active caspase-3; doxorubicin 4 mg/kg BW i.p., day 8, n = 3, mean ± SD): 0.6 ± 0.2 % area
